Molecular target: T1, human SLC6A19 and TMEM27 (Homo sapiens, UniProt Q695T7)
T1 construct: expressed in transfected cells
T1 sequence (Q695T7 1-634): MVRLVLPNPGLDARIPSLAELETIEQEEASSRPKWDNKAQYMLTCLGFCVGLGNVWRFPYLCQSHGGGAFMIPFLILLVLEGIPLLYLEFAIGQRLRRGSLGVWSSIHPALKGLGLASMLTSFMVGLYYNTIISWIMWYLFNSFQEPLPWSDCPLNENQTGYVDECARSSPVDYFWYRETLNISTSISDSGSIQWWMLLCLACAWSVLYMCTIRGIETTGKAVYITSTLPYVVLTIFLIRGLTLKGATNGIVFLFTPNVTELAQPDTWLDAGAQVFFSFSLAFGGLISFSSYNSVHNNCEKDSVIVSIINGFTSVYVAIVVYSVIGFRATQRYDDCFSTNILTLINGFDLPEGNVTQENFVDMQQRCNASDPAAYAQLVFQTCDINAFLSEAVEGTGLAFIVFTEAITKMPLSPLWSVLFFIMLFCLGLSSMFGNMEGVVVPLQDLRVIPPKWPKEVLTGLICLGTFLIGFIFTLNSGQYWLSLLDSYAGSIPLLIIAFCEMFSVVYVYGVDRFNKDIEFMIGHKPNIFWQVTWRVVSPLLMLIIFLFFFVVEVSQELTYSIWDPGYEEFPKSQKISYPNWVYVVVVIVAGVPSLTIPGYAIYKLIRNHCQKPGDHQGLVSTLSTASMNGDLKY
T1 sequence (Q9HBJ8 15-222 partner): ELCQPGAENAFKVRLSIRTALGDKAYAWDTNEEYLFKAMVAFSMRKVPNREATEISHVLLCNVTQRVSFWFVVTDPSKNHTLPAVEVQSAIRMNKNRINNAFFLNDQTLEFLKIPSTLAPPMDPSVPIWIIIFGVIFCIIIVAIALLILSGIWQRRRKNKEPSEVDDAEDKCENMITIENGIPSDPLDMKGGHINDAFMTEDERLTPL
Assay: Radiolabelled (3H) leucine uptake in CHO cells with doxycycline-inducible expression of human SLC6A19 and TMEM27 (Example B-1)
Assay type: cell-based
Conditions: CHO cells with doxycycline-inducible expression of human SLC6A19 and TMEM27, read-out: SLC6A19_Radioligand Uptake Assay IC50
Experimental: The flasks were then incubated (humidified, 37° C. with 5% CO2) for 2 minutes. After incubation, 10 mL of pre-warmed cell culture media was added to each flask. The cell suspension was collected and centrifuged for 5 minutes at 200×g. The supernatant was aspirated and the pellet was resuspended in 5 mL pre-warmed cell culture media. The resuspended cells were counted using the Countess Cell Counting Chamber (Invitrogen) and the cell concentration of the suspension was readjusted to 1 million live cells/mL using pre-warmed cell culture media. […] Assay plates were then incubated (humidified, 37° C. with 5% CO2) for 18 hours. After incubation, the media was aspirated and the wells were washed 4 times with pre-warmed HBSS (Sigma-Aldrich, H8264-1L) using an Apricot S-Pipette S2 (Apricot Designs), such that 5 uL/well HBSS was remaining at the end of each wash. […] At this step, the final in-well DMSO concentration in the assay plate is 0.5%. All compounds were plated in a duplicate 8-point dilution series that consisted of 3-fold dilutions. The plates were incubated with compound (humidified, 37° C. with 5% CO2) for 1 hour. […] The plates were then incubated (humidified, 37° C. with 5% CO2) on a plate shaker at 200 rpm for 2 hours. After incubation, the plates were removed from the shaker and kept at room temperature for 15 minutes. Liquid scintillation analysis was performed using the MicroBeta2 Microplate Counter (Perkin Elmer). Activity (%) was derived by normalizing the average of positive control compound treated wells to 0% and the average of DMSO (negative control) wells to 100%. Collaborative Drug Discovery software was used for graphing data.

| SMILES | IC50 [nM] |
| --- | --- |
| Cc1cc(COc2cc3[nH]c(CNC(=O)[C@@H]4CCC[C@@H]4O)cc3cc2Cl)on1 (racemic) [Compound 573, (1R,2S)-N-((5-chloro-6-((3-methylisoxazol-5-yl)methoxy)-1H-indol-2-yl)methyl)-2-hydroxycyclopentane-1-carboxamide and (1S,2R)-N-((5-chloro-6-((3-methylisoxazol-5-yl)methoxy)-1H-indol-2-yl)methyl)-2-hydroxycyclopentane-1-carboxamide] | 1390 |
| CC1(C(=O)NCc2cc3cc(C4CC4(F)F)c(OCc4ccon4)cc3[nH]2)CC1 (racemic) [Compound 658, N-((5-(2,2-difluorocyclopropyl)-6-(isoxazol-3-ylmethoxy)-1H-indol-2-yl)methyl)-1-methylcyclopropane-1-carboxamide] | 590 |
| CC(F)C(=O)NCc1cc2cc(Cl)c(OCc3cscn3)cc2[nH]1 (single isomer, unassigned) [Compound 444, (R or S)-N-((5-chloro-6-(thiazol-4-ylmethoxy)-1H-indol-2-yl)methyl)-2-fluoropropanamide] | 77.4 |
| Cc1cc(COc2cc3[nH]c(CNC(=O)C(C)C#N)cc3cc2Cl)on1 (single isomer, unassigned) [Compound 446, (R or S)-N-((5-chloro-6-((3-methylisoxazol-5-yl)methoxy)-1H-indol-2-yl)methyl)-2-cyanopropanamide] | 221 |
| Cc1cc(COc2cc3[nH]c(CNC(=O)C(C)C#N)cc3cc2Cl)on1 (single isomer, unassigned) [Compound 447, (S or R)-N-((5-chloro-6-((3-methylisoxazol-5-yl)methoxy)-1H-indol-2-yl)methyl)-2-cyanopropanamide] | 208 |
| CC1(C(=O)NCc2cc3c(F)c(Cl)c(OCc4ccon4)cc3[nH]2)CC1 [Compound 15, N-((5-chloro-4-fluoro-6-(isoxazol-3-ylmethoxy)-1H-indol-2-yl)methyl)-1-methylcyclopropane-1-carboxamide] | 363 |
| CC1(C(=O)NCc2cc3cc(Cl)c(OCc4ccon4)c(F)c3[nH]2)CC1 [Compound 16, N-((5-chloro-7-fluoro-6-(isoxazol-3-ylmethoxy)-1H-indol-2-yl)methyl)-1-methylcyclopropane-1-carboxamide] | 172 |
| CC1(C(=O)NCc2cc3c(F)c(Cl)c(OCc4cscn4)cc3[nH]2)CC1 [Compound 17, N-((5-chloro-4-fluoro-6-(thiazol-4-ylmethoxy)-1H-indol-2-yl)methyl)-1-methylcyclopropane-1-carboxamide] | 362 |
| Cc1ccc(COc2cc3[nH]c(CNC(=O)C4(C)CC4)cc3cc2Cl)nc1 [Compound 21, N-((5-chloro-6-((5-methylpyridin-2-yl)methoxy)-1H-indol-2-yl)methyl)-1-methylcyclopropane-1-carboxamide] | 532 |
| CC1(C(=O)NCc2cc3cc(Cl)c(OCc4cc(F)ccn4)cc3[nH]2)CC1 [Compound 35, N-((5-chloro-6-((4-fluoropyridin-2-yl)methoxy)-1H-indol-2-yl)methyl)-1-methylcyclopropane-1-carboxamide] | 902 |
| CCc1cc2cc(CNC(=O)C3(C)CC3)[nH]c2cc1OCc1ccon1 [Compound 61, N-((5-ethyl-6-(isoxazol-3-ylmethoxy)-1H-indol-2-yl)methyl)-1-methylcyclopropane-1-carboxamide] | 297 |
| CC1(C(=O)NCc2cc3cc(F)c(OCc4cc(C(F)(F)F)on4)cc3[nH]2)CC1 [Compound 72, N-((5-fluoro-6-((5-(trifluoromethyl)isoxazol-3-yl)methoxy)-1H-indol-2-yl)methyl)-1-methylcyclopropane-1-carboxamide] | 1240 |
| Cc1cnc(COc2cc3[nH]c(CNC(=O)C4(C)CC4)cc3cc2F)o1 [Compound 73, N-((5-fluoro-6-((5-methyloxazol-2-yl)methoxy)-1H-indol-2-yl)methyl)-1-methylcyclopropane-1-carboxamide] | 1470 |
| CC1CN(C(=O)NCc2cc3cc(Cl)c(OCc4cscn4)cc3[nH]2)C1 [Compound 80, N-((5-chloro-6-(thiazol-4-ylmethoxy)-1H-indol-2-yl)methyl)-3-methylazetidine-1-carboxamide] | 350 |
| O=C(NCc1cc2cc(Cl)c(OCc3ccon3)cc2[nH]1)N1CCCCC1 [Compound 85, N-((5-chloro-6-(isoxazol-3-ylmethoxy)-1H-indol-2-yl)methyl)piperidine-1-carboxamide] | 402 |
| CC1CCCN1C(=O)NCc1cc2cc(Cl)c(OCc3ccon3)cc2[nH]1 (centres unmarked) [Compound 86, N-((5-chloro-6-(isoxazol-3-ylmethoxy)-1H-indol-2-yl)methyl)-2-methylpyrrolidine-1-carboxamide] | 490 |

The remaining compounds from weak to strong by IC50, led by results:

| IC50 [nM] | SMILES |
| --- | --- |
| 3880 | CN1CCC1C(=O)NCc1cc2cc(Cl)c(OCc3cscn3)cc2[nH]1 (racemic) [Compound 669, N-((5-chloro-6-(thiazol-4-ylmethoxy)-1H-indol-2-yl)methyl)-1-methylazetidine-2-carboxamide] |
| 3600 | Cc1cc(COc2cc3[nH]c(CNC(=O)C4CCN(C)C4=O)cc3cc2Cl)on1 (racemic) [Compound 574, (R)-N-((5-chloro-6-((3-methylisoxazol-5-yl)methoxy)-1H-indol-2-yl)methyl)-1-methyl-2-oxopyrrolidine-3-carboxamide and (S)-N-((5-chloro-6-((3-methylisoxazol-5-yl)methoxy)-1H-indol-2-yl)methyl)-1-methyl-2-oxopyrrolidine-3-carboxamide] |
| 2240 | Cc1ccnc(COc2cc3[nH]c(CNC(=O)C4(C)CC4)cc3cc2Cl)c1 [Compound 22, N-((5-chloro-6-((4-methylpyridin-2-yl)methoxy)-1H-indol-2-yl)methyl)-1-methylcyclopropane-1-carboxamide] |
| 690 | O=C(NCc1cc2cc(Cl)c(OCc3ccon3)cc2[nH]1)N1CCOCC1 [Compound 84, N-((5-chloro-6-(isoxazol-3-ylmethoxy)-1H-indol-2-yl)methyl)morpholine-4-carboxamide] |
| 657 | Cc1cc(COc2cc3[nH]c(CNC(=O)N4CCC4C(F)F)cc3cc2Cl)on1 (racemic) [Compound 581, (S)-N-((5-chloro-6-((3-methylisoxazol-5-yl)methoxy)-1H-indol-2-yl)methyl)-2-(difluoromethyl)azetidine-1-carboxamide and (R)-N-((5-chloro-6-((3-methylisoxazol-5-yl)methoxy)-1H-indol-2-yl)methyl)-2-(difluoromethyl)azetidine-1-carboxamide] |
| 341 | CC1(C(=O)NCc2cc3ccc(OCc4cscn4)c(F)c3[nH]2)CC1 [Compound 19, N-((7-fluoro-6-(thiazol-4-ylmethoxy)-1H-indol-2-yl)methyl)-1-methylcyclopropane-1-carboxamide] |
| 272 | O=C(NCc1cc2cc(Cl)c(OCc3ccon3)cc2[nH]1)N1CCC1 [Compound 79, N-((5-chloro-6-(isoxazol-3-ylmethoxy)-1H-indol-2-yl)methyl)azetidine-1-carboxamide] |
| 112 | O=C(NCc1cc2cc(Cl)c(OCc3cscn3)cc2[nH]1)C(F)CF (racemic) [Compound 639, N-((5-chloro-6-(thiazol-4-ylmethoxy)-1H-indol-2-yl)methyl)-2,3-difluoropropanamide] |
| 111 | Cc1coc(COc2cc3[nH]c(CNC(=O)C4(C)CC4)cc3cc2Cl)n1 [Compound 71, N-((5-chloro-6-((4-methyloxazol-2-yl)methoxy)-1H-indol-2-yl)methyl)-1-methylcyclopropane-1-carboxamide] |
| 64.2 | CC(F)C(=O)NCc1cc2cc(Cl)c(OCc3cscn3)cc2[nH]1 (single isomer, unassigned) [Compound 443, (S or R)-N-((5-chloro-6-(thiazol-4-ylmethoxy)-1H-indol-2-yl)methyl)-2-fluoropropanamide] |
